Laboratory results as given in ChEMBL document CHEMBL5512655, “Discovery of indolylacryloyl-derived oxacins as novel potential broad-spectrum antibacterial candidates” (Eur J Med Chem, 2024).
Values after ≈ are worked out from the molar mass of the structure shown.

Legend:
Type in all cases: functional
Staphylococcus aureus [1] = experiment: Antibacterial activity against Staphylococcus aureus assessed as inhibition of bacterial growth measured after 24 hrs incubation
Staphylococcus aureus [2] = experiment: Antibacterial activity against methicillin-resistant Staphylococcus aureus N315 assessed as inhibition of bacterial growth measured after 24 hrs incubation
Klebsiella pneumoniae = experiment: Antibacterial activity against Klebsiella pneumonia assessed as inhibition of bacterial growth measured after 24 hrs incubation
Enterococcus faecalis = experiment: Antibacterial activity against Enterococcus faecalis assessed as inhibition of bacterial growth measured after 24 hrs incubation
Pseudomonas aeruginosa [3] = experiment: Antibacterial activity against Pseudomonas aeruginosa ATCC 27853 assessed as inhibition of bacterial growth measured after 24 hrs incubation
Staphylococcus aureus [4] = experiment: Antibacterial activity against Staphylococcus aureus ATCC 25923 assessed as inhibition of bacterial growth measured after 24 hrs incubation
Escherichia coli [5] = experiment: Antibacterial activity against Escherichia coli assessed as inhibition of bacterial growth measured after 24 hrs incubation
Staphylococcus aureus [6] = experiment: Antibacterial activity against Staphylococcus aureus ATCC 29213 assessed as inhibition of bacterial growth measured after 24 hrs incubation
Escherichia coli [7] = experiment: Antibacterial activity against Escherichia coli ATCC 25922 assessed as inhibition of bacterial growth measured after 24 hrs incubation
Pseudomonas aeruginosa [8] = experiment: Antibacterial activity against Pseudomonas aeruginosa assessed as inhibition of bacterial growth measured after 24 hrs incubation
Acinetobacter baumannii = experiment: Antibacterial activity against Acinetobacter baumannii assessed as inhibition of bacterial growth measured after 24 hrs incubation

| Structure (SMILES) | MIC (Staphylococcus aureus [1]) | MIC (Staphylococcus aureus [2]) | MIC (Klebsiella pneumoniae) | MIC (Enterococcus faecalis) | MIC (Pseudomonas aeruginosa [3]) | MIC (Staphylococcus aureus [4]) | MIC (Escherichia coli [5]) | MIC (Staphylococcus aureus [6]) | MIC (Escherichia coli [7]) | MIC (Pseudomonas aeruginosa [8]) | MIC (Acinetobacter baumannii) |
| --- | --- | --- | --- | --- | --- | --- | --- | --- | --- | --- | --- |
| CCn1cc(C(=O)O)c(=O)c2cc(F)c(N3CCN(C(=O)/C(C#N)=C/c4c[nH]c5cc(F)ccc45)CC3)cc21 | 1 µg/mL (≈ 1.88 µM) | 8 µg/mL (≈ 15.1 µM) | 0.5 µg/mL (≈ 0.941 µM) | 8 µg/mL (≈ 15.1 µM) | 1 µg/mL (≈ 1.88 µM) | 4 µg/mL (≈ 7.53 µM) | 4 µg/mL (≈ 7.53 µM) | 2 µg/mL (≈ 3.76 µM) | 2 µg/mL (≈ 3.76 µM) | 1 µg/mL (≈ 1.88 µM) | 2 µg/mL (≈ 3.76 µM) |
| CCn1cc(C(=O)O)c(=O)c2cc(F)c(N3CCN(C(=O)/C(C#N)=C/c4cn(Cc5cccc(Cl)c5)c5ccccc45)CC3)cc21 | 32 µg/mL (≈ 50.1 µM) | 1 µg/mL (≈ 1.57 µM) | 0.5 µg/mL (≈ 0.784 µM) | 8 µg/mL (≈ 12.5 µM) | 0.25 µg/mL (≈ 0.392 µM) | 2 µg/mL (≈ 3.13 µM) | 16 µg/mL (≈ 25.1 µM) | 4 µg/mL (≈ 6.27 µM) | 8 µg/mL (≈ 12.5 µM) | 32 µg/mL (≈ 50.1 µM) | 8 µg/mL (≈ 12.5 µM) |
| CCn1cc(C(=O)O)c(=O)c2cc(F)c(N3CCN(C(=O)/C(C#N)=C/c4c[nH]c5cc(C)ccc45)CC3)cc21 | 0.25 µg/mL (≈ 0.474 µM) | 0.25 µg/mL (≈ 0.474 µM) | 0.25 µg/mL (≈ 0.474 µM) | 2 µg/mL (≈ 3.79 µM) | 2 µg/mL (≈ 3.79 µM) | 0.25 µg/mL (≈ 0.474 µM) | 1 µg/mL (≈ 1.9 µM) | 1 µg/mL (≈ 1.9 µM) | 0.5 µg/mL (≈ 0.948 µM) | 0.25 µg/mL (≈ 0.474 µM) | 0.25 µg/mL (≈ 0.474 µM) |
| CCn1cc(C(=O)O)c(=O)c2cc(F)c(N3CCN(C(=O)/C(C#N)=C/c4cn(CC5CCCC5)c5ccccc45)CC3)cc21 | 16 µg/mL (≈ 26.9 µM) | 32 µg/mL (≈ 53.7 µM) | 0.5 µg/mL (≈ 0.839 µM) | 8 µg/mL (≈ 13.4 µM) | 1 µg/mL (≈ 1.68 µM) | 1 µg/mL (≈ 1.68 µM) | 4 µg/mL (≈ 6.72 µM) | 2 µg/mL (≈ 3.36 µM) | 1 µg/mL (≈ 1.68 µM) | 0.5 µg/mL (≈ 0.839 µM) | 16 µg/mL (≈ 26.9 µM) |
